{"source": "patent US8445492B2", "about": "“Method for inhibiting growth of cancer cells and cell telomere and diseases of cell proliferation by using heteroannelated anthraquinone derivative compounds” (National Defense Medical Center, priority 2008, dated 2013)", "key": {"[1]": {"test_system": "PC-3"}, "[2]": {"test_system": "DU-145"}, "[3]": {"test_system": "HS 578T", "test": "NCI DTP in-vitro dose response, Breast Cancer", "type": "cell-based", "conditions": "HS 578T"}, "[4]": {"test_system": "BT-549", "test": "NCI DTP in-vitro dose response, Breast Cancer", "type": "cell-based"}, "[5]": {"test_system": "MDA-MB-435", "test": "NCI DTP in-vitro dose response, Breast Cancer", "type": "cell-based"}, "[6]": {"test_system": "T-47D", "test": "NCI DTP in-vitro dose response, Breast Cancer", "type": "cell-based", "conditions": "T-47D"}, "[7]": {"test_system": "MCF7", "test": "NCI DTP in-vitro dose response, Breast Cancer", "type": "cell-based"}, "[8]": {"test_system": "NCI/ADR-RES", "test": "NCI DTP in-vitro dose response, Breast Cancer", "type": "cell-based", "conditions": "NCI/ADR-RES"}, "[9]": {"test_system": "MDA-MB-231/ATCC", "test": "NCI DTP in-vitro dose response, Breast Cancer", "type": "cell-based", "conditions": "MDA-MB-231/ATCC"}, "[10]": {"conditions": "read-out: LC50 (the source's name)"}}, "note": "Like-named read-outs stand apart in the source and are kept apart here.", "data": [{"molecule": "O=C1c2ccccc2C(=O)c2c1ccc1nccnc21", "note": "[TABLE 5-8]", "values": [{"measurement": "TGI", "setting": "[1]; PC-3", "result": ">1.00E−4"}, {"measurement": "Percent Growth", "setting": "[1]; PC-3, Log10 Concentration −4.0", "result": 50, "unit": "%"}, {"measurement": "Percent Growth", "setting": "[1]; PC-3, Log10 Concentration −5.0", "result": 50, "unit": "%"}, {"measurement": "Percent Growth", "setting": "[1]; PC-3, Log10 Concentration −6.0", "result": 69, "unit": "%"}, {"measurement": "Percent Growth", "setting": "[1]; PC-3, Log10 Concentration −7.0", "result": 92, "unit": "%"}, {"measurement": "Percent Growth", "setting": "[1]; PC-3, Log10 Concentration −8.0", "result": 101, "unit": "%"}, {"measurement": "CC50", "setting": "[1]; read-out: LC50, PC-3", "result": "> 100", "unit": "µM"}, {"measurement": "GI50", "setting": "[2]; DU-145", "result": 11.4, "unit": "µM"}, {"measurement": "TGI", "setting": "[2]; DU-145", "result": "3.43E−5"}, {"measurement": "Percent Growth", "setting": "[2]; DU-145, Log10 Concentration −4.0", "result": "−49", "unit": "%"}, {"measurement": "Percent Growth", "setting": "[2]; DU-145, Log10 Concentration −5.0", "result": 56, "unit": "%"}, {"measurement": "Percent Growth", "setting": "[2]; DU-145, Log10 Concentration −6.0", "result": 96, "unit": "%"}, {"measurement": "Percent Growth", "setting": "[2]; DU-145, Log10 Concentration −7.0", "result": 95, "unit": "%"}, {"measurement": "Percent Growth", "setting": "[2]; DU-145, Log10 Concentration −8.0", "result": 102, "unit": "%"}, {"measurement": "CC50", "setting": "[2]; read-out: LC50, DU-145", "result": "> 100", "unit": "µM"}]}, {"molecule": "O=C1c2ccccc2C(=O)c2c1ccc1nccnc21", "note": "[TABLE 5-9]", "values": [{"measurement": "TGI", "setting": "[3]", "result": "9.14E−5"}, {"measurement": "Percent Growth", "setting": "[3]; Log10 Concentration −4.0", "result": "−2", "unit": "%"}, {"measurement": "Percent Growth", "setting": "[3]; Log10 Concentration −5.0", "result": 59, "unit": "%"}, {"measurement": "Percent Growth", "setting": "[3]; Log10 Concentration −6.0", "result": 81, "unit": "%"}, {"measurement": "Percent Growth", "setting": "[3]; Log10 Concentration −7.0", "result": 90, "unit": "%"}, {"measurement": "Percent Growth", "setting": "[3]; Log10 Concentration −8.0", "result": 88, "unit": "%"}, {"measurement": "GI50", "setting": "[3]; read-out: GI50", "result": 14.1, "unit": "µM"}, {"measurement": "CC50", "setting": "[3]; [10]", "result": "> 100", "unit": "µM"}, {"measurement": "TGI", "setting": "[4]; BT-549", "result": "9.35E−5"}, {"measurement": "Percent Growth", "setting": "[4]; BT-549, Log10 Concentration −4.0", "result": "−2", "unit": "%"}, {"measurement": "Percent Growth", "setting": "[4]; BT-549, Log10 Concentration −5.0", "result": 55, "unit": "%"}, {"measurement": "Percent Growth", "setting": "[4]; BT-549, Log10 Concentration −6.0", "result": 83, "unit": "%"}, {"measurement": "Percent Growth", "setting": "[4]; BT-549, Log10 Concentration −7.0", "result": 85, "unit": "%"}, {"measurement": "Percent Growth", "setting": "[4]; BT-549, Log10 Concentration −8.0", "result": 95, "unit": "%"}, {"measurement": "GI50", "setting": "[4]; BT-549, read-out: GI50", "result": 12.2, "unit": "µM"}, {"measurement": "CC50", "setting": "[4]; BT-549, read-out: LC50 (the source's name)", "result": "> 100", "unit": "µM"}, {"measurement": "TGI", "setting": "[5]; MDA-MB-435", "result": "2.37E−5"}, {"measurement": "Percent Growth", "setting": "[5]; MDA-MB-435, Log10 Concentration −4.0", "result": "−95", "unit": "%"}, {"measurement": "Percent Growth", "setting": "[5]; MDA-MB-435, Log10 Concentration −5.0", "result": 57, "unit": "%"}, {"measurement": "Percent Growth", "setting": "[5]; MDA-MB-435, Log10 Concentration −6.0", "result": 101, "unit": "%"}, {"measurement": "Percent Growth", "setting": "[5]; MDA-MB-435, Log10 Concentration −7.0", "result": 97, "unit": "%"}, {"measurement": "Percent Growth", "setting": "[5]; MDA-MB-435, Log10 Concentration −8.0", "result": 101, "unit": "%"}, {"measurement": "GI50", "setting": "[5]; MDA-MB-435, read-out: GI50", "result": 11.1, "unit": "µM"}, {"measurement": "CC50", "setting": "[5]; MDA-MB-435, read-out: LC50 (the source's name)", "result": 50.4, "unit": "µM"}, {"measurement": "TGI", "setting": "[6]", "result": "7.51E−5"}, {"measurement": "Percent Growth", "setting": "[6]; Log10 Concentration −4.0", "result": "−8", "unit": "%"}, {"measurement": "Percent Growth", "setting": "[6]; Log10 Concentration −5.0", "result": 56, "unit": "%"}, {"measurement": "Percent Growth", "setting": "[6]; Log10 Concentration −6.0", "result": 71, "unit": "%"}, {"measurement": "Percent Growth", "setting": "[6]; Log10 Concentration −7.0", "result": 80, "unit": "%"}, {"measurement": "Percent Growth", "setting": "[6]; Log10 Concentration −8.0", "result": 85, "unit": "%"}, {"measurement": "GI50", "setting": "[6]; read-out: GI50", "result": 12.6, "unit": "µM"}, {"measurement": "CC50", "setting": "[6]; [10]", "result": "> 100", "unit": "µM"}, {"measurement": "TGI", "setting": "[7]; MCF7", "result": "2.98E−5"}, {"measurement": "Percent Growth", "setting": "[7]; MCF7, Log10 Concentration −4.0", "result": "−29", "unit": "%"}, {"measurement": "Percent Growth", "setting": "[7]; MCF7, Log10 Concentration −5.0", "result": 27, "unit": "%"}, {"measurement": "Percent Growth", "setting": "[7]; MCF7, Log10 Concentration −6.0", "result": 45, "unit": "%"}, {"measurement": "Percent Growth", "setting": "[7]; MCF7, Log10 Concentration −7.0", "result": 80, "unit": "%"}, {"measurement": "Percent Growth", "setting": "[7]; MCF7, Log10 Concentration −8.0", "result": 81, "unit": "%"}, {"measurement": "GI50", "setting": "[7]; MCF7, read-out: GI50", "result": 0.722, "unit": "µM"}, {"measurement": "CC50", "setting": "[7]; MCF7, read-out: LC50 (the source's name)", "result": "> 100", "unit": "µM"}, {"measurement": "TGI", "setting": "[8]", "result": ">1.00E−4"}, {"measurement": "Percent Growth", "setting": "[8]; Log10 Concentration −4.0", "result": 8, "unit": "%"}, {"measurement": "Percent Growth", "setting": "[8]; Log10 Concentration −5.0", "result": 38, "unit": "%"}, {"measurement": "Percent Growth", "setting": "[8]; Log10 Concentration −6.0", "result": 87, "unit": "%"}, {"measurement": "Percent Growth", "setting": "[8]; Log10 Concentration −7.0", "result": 92, "unit": "%"}, {"measurement": "Percent Growth", "setting": "[8]; Log10 Concentration −8.0", "result": 95, "unit": "%"}, {"measurement": "GI50", "setting": "[8]; read-out: GI50", "result": 5.68, "unit": "µM"}, {"measurement": "CC50", "setting": "[8]; [10]", "result": "> 100", "unit": "µM"}, {"measurement": "TGI", "setting": "[9]", "result": ">1.00E−4"}, {"measurement": "Percent Growth", "setting": "[9]; Log10 Concentration −4.0", "result": 14, "unit": "%"}, {"measurement": "Percent Growth", "setting": "[9]; Log10 Concentration −5.0", "result": 64, "unit": "%"}, {"measurement": "Percent Growth", "setting": "[9]; Log10 Concentration −6.0", "result": 85, "unit": "%"}, {"measurement": "Percent Growth", "setting": "[9]; Log10 Concentration −7.0", "result": 88, "unit": "%"}, {"measurement": "Percent Growth", "setting": "[9]; Log10 Concentration −8.0", "result": 100, "unit": "%"}, {"measurement": "GI50", "setting": "[9]; read-out: GI50", "result": 19.1, "unit": "µM"}, {"measurement": "CC50", "setting": "[9]; [10]", "result": "> 100", "unit": "µM"}]}]}
